According to ChEMBL document CHEMBL1142558, “A new polyether ladder compound produced by the dinoflagellate Karenia brevis” (J Nat Prod, 2005):

How the values were obtained:
[1] = Displacement of [3H]PbTx3 from VSSC in Sprague-Dawley rat brain synaptosomes; assay type: subcellular
[2] = tested on: Gambusia affinis; experiment: Toxicity against Gambusia affinis assessed as time required for death at 1 ug/ml after 24 hrs; assay type: organism-based; details: in vivo

| Compound | Ki [1] [nM] | Activity [2] |
| --- | --- | --- |
| C=C/C=C\CC[C@H]1O[C@H]2CC[C@@]3(C)O[C@H]4[C@@H](O)C[C@@]5(C)O[C@@H](CC/C=C(C)/C(C)=C/C=O)[C@@H](C)C[C@H]5O[C@@H]4C[C@@H]3O[C@@H]2CC[C@@]1(C)O [BREVENAL] | 1850 | Non-toxic |
| C=C/C=C\CC[C@H]1O[C@H]2CC[C@@]3(C)O[C@H]4[C@@H](O)C[C@@]5(C)O[C@@H](CC/C=C(C)/C(C)=C/C(OC)OC)[C@@H](C)C[C@@H]5O[C@@H]4C[C@@H]3O[C@@H]2CC[C@@]1(C)O [BREVENAL ACETAL] | 680 | Non-toxic |
| C=C(C=O)C[C@@H]1C[C@H](O)[C@]2(C)O[C@@H]3C[C@@H]4O[C@@H]5C[C@]6(C)O[C@]7(C)CC[C@@H]8O[C@@H]9C[C@]%10(C)O[C@@H]%11C(C)=CC(=O)O[C@H]%11C[C@H]%10O[C@H]9C[C@@H](C)[C@H]8O[C@H]7C[C@H]6O[C@@]5(C)C/C=C\[C@H]4O[C@H]3C[C@H]2O1 [BREVETOXIN B] | – | 7.5 min |
